From patent publication US20170260178A1 (SPERO GYRASE, INC., priority 2012, published 2017)

Legend:
S. aureus (ATCC 29213) = assay: Bacterial assay: MIC against S. aureus; type: cell-based, Staphylococcus aureus; conditions: Staphylococcus aureus, ATCC29213, read-out: minimal inhibitory concentration (MIC)
S. pyogenes (ATCC 51339) = assay: Bacterial assay: MIC against S. pyogenes; type: cell-based, Streptococcus pyogenes; conditions: Streptococcus pyogenes, ATCC51339, read-out: minimal inhibitory concentration (MIC)
[1] = test system: H. influenzae (ATCC 49247); assay: Bacterial assay: MIC against H. influenzae; type: cell-based; conditions: Haemophilus influenzae, ATCC49247; H. influenzae ATCC 49247; read-out: minimal inhibitory concentration (MIC)
S. aureus ATCC29213 = assay: Rat thigh infection model; type: in vivo; conditions: neutropenic Sprague-Dawley rats, IV ≦40 mg/kg
Method: The thighs of Sprague-Dawley rats (250-275 g), rendered neutropenic by the intraperitoneal administration of cyclophosphamide (75 mg/kg on days −4 and −1), were inoculated with approximately 1×10^7 cfus of S. aureus ATCC29213.
Compounds were administered as indicated 2 hours later and the cfus enumerated at various times post dosing by harvesting the thighs, homogenising in PBS on ice and plating serial dilutions onto CLED agar plates for growth at 37° C. and colony counting.

S. pneumoniae ATCC6301 [2] = assay: Mouse lung infection model (Gram positive); type: in vivo; conditions: CD-1 mice, IV 30 mg/kg, cfus at 48 hours post inoculation
Method: Anaesthetised female CD-1 mice (18-22 g) were inoculated intranasally with approximately 10^6 cfus of S. pneumoniae ATCC6301 prepared from a fresh overnight culture by placing 50 μl of inoculum on the nares and allowing the mice to inhale. Compounds were administered as indicated at 24 hours post inoculation and the cfus enumerated at 48 hours post inoculation by harvesting the lungs, homogenising in PBS on ice and plating serial dilutions onto TSA+5% blood plates for growth overnight at 37° C. and colony counting.

S. pneumoniae ATCC6301 [3] = assay: Mouse survival model (lung infection); type: in vivo; conditions: CD-1 mice, IV 10 mg/kg, at seven or nine days
Method: Anaesthetised female CD-1 mice (18-22 g) were inoculated intranasally with approximately 10^6 cfus of S. pneumoniae ATCC6301 prepared from a fresh overnight culture by placing 50 μl of inoculum on the nares and allowing the mice to inhale. Compounds are administered as indicated at 24, 48 and 72 hours post inoculation and the mice monitored for survival for seven or nine days after infection. […] Similarly, when Compound 17 was dosed IV at 30 mg/kg 90% of mice survived at day seven.

## CCNC(=O)Nc1nc2cc(-c3cnc(C(C)(C)O)nc3)cc(-c3ccccn3)c2s1 [Compound 1, 1-ethyl-3-[5-[2-(1-hydroxy-1-methyl-ethyl)pyrimidin-5-yl]-7-(2-pyridyl)-1,3-benzothiazol-2-yl]urea]
S. aureus (ATCC 29213)
  MIC: ≤ 1 µg/mL
S. pyogenes (ATCC 51339)
  MIC: ≤ 1 µg/mL
[1]
  MIC: ≤ 2 µg/mL
S. aureus ATCC29213
  log drop in colony forming units compared to the control: ≥ 3 log
S. pneumoniae ATCC6301 [2]
  log drop in colony forming units compared to the control: ≥ 3 log
S. pneumoniae ATCC6301 [3]
  mice surviving: 80%
